Source: patent publication US20190216761A1, “COMPOSITIONS COMPRISING 15-HEPE AND METHODS OF USING THE SAME” (Afimmune Limited, priority 2015, published 2019)
Marks after values point to notes of the source that are not given here.

Columns and labels:
hPPARδ Reporter Cells = experiment: Live cell multiplex assay; type: cell-based
Description: (§1) This study utilized proprietary reporter cells expressing a hybrid receptor comprising the N-terminal Gal4 DNA binding domain fused to the ligand binding domain of the specific human nuclear receptor (hPPARα, hPPARδ, and hPPARγ) and rat nuclear receptor (rPPARα, rPPARδ, and rPPARγ). The reporter vectors used in this Example comprise the firefly luciferase gene functionally linked to the Gal4 upstream activation sequence.
(§2) Nuclear Receptor assay was performed by suspending Reporter Cells in CRM containing 10% charcoal stripped FBS. 2×-EC80 concentrations of the appropriate reference agonist were then added to the Reporter Cell suspension, and 100 μL of the mixture dispensed into wells of a white 96-well plate. Test compounds were diluted using compound screening medium (CSM) containing 10% charcoal stripped FBS to generate “2×-concentration” treatment media. Immediately after this dilution step, 100 μL of each diluted 2×-concentration treatment medium was dispensed (in triplicate) into the Reporter Cell-containing assay wells.
(§3) After incubation at 37° C. for 24 hours, the treatment media was discarded. Each well was rinsed once with LCM Buffer; LCM substrate was then added. After incubation for 30 minutes at 37° C., fluorescence was measured to determine the relative number of live cells per assay well. LCM substrate was then discarded and 100 μL of Luciferase Detection Reagent substrate was added to each well. RLUs were quantified from each well to determine nuclear receptor activities.

rPPARα Reporter Cells = experiment: Live cell multiplex assay; type: cell-based
Description: as §1, §2, §3

hPPARγ = biological target: T1, hPPARγ (Homo sapiens, UniProt P37231); experiment: PPAR agonist reporter assay (Gal4 hybrid receptor, luciferase); type: cell-based
T1 construct: expressed in transfected cells
T1 sequence (P37231 238-503 limits assumed): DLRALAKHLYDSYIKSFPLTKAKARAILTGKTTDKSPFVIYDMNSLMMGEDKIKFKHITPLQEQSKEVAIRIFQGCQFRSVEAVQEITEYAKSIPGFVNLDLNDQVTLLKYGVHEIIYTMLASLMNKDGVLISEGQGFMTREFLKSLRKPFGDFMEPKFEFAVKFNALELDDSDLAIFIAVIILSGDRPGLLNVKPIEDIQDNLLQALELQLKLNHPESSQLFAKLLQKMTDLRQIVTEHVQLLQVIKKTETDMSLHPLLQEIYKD
Description: as §1
(§4) Nuclear Receptor assay was performed by dispensing 100 μL of a suspension of Reporter Cells in Cell Recovery Medium (CRM) containing 10% charcoal stripped FBS into each well of a white 96-well plate. Test compounds were diluted using compound screening medium (CSM) containing 10% charcoal stripped FBS to generate “2×-concentration” treatment media. Immediately after this dilution step, 100 μL of each diluted 2×-concentration treatment medium was dispensed (in triplicate) into the Reporter Cell-containing assay wells.
(§5) After incubation at 37° C. for 24 hours, the treatment media was discarded. 100 μL of Luciferase Detection Reagent substrate was added to each well and RLUs were quantified from each well to determine nuclear receptor activities.

rPPARα = biological target: T2, rPPARα (Rattus norvegicus, UniProt P37230); experiment: as above; type: cell-based
T2 construct: expressed in transfected cells
T2 sequence (P37230 239-466 limits assumed): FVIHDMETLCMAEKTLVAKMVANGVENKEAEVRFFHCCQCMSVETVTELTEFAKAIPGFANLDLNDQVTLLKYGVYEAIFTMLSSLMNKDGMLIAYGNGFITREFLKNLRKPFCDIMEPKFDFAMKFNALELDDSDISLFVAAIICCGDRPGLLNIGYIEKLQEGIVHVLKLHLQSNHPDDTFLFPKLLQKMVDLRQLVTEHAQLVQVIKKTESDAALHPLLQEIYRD
Description: as §1, §4, §5

rPPARδ = experiment: PPAR antagonist reporter assay (reference agonist at EC80); type: cell-based, rat
Description: as §1, §2, §3

CC/C=C\C/C=C\C/C=C\C/C=C\C/C=C\CCCC(=O)OCC [EPA-EE, EPA ethyl ester, reference compound]
% Live cells vs. 0.10% DMSO, hPPAR-δ (hPPARδ Reporter Cells; 137 nM): 97% | % Live cells vs. 0.10% DMSO, hPPAR-δ (hPPARδ Reporter Cells; 412 nM): 97% | % Live cells vs. 0.10% DMSO, hPPAR-δ (hPPARδ Reporter Cells; 1,235 nM): 99% | % Live cells vs. 0.10% DMSO, hPPAR-δ (hPPARδ Reporter Cells; 3,704 nM): 100% | % Live cells vs. 0.10% DMSO, hPPAR-δ (hPPARδ Reporter Cells; 11,111 nM): 101% | % Live cells vs. 0.10% DMSO, hPPAR-δ (hPPARδ Reporter Cells; 33,333 nM): 101% | % Live cells vs. 0.10% DMSO, hPPAR-δ (hPPARδ Reporter Cells; 100,000 nM): 103% | % Live cells vs. 0.10% DMSO, hPPAR-δ (hPPARδ Reporter Cells; 300,000 nM): 103% | % Live cells vs. 0.10% DMSO, rPPAR-α (rPPARα Reporter Cells; 137 nM): 89% | % Live cells vs. 0.10% DMSO, rPPAR-α (rPPARα Reporter Cells; 412 nM): 98% | % Live cells vs. 0.10% DMSO, rPPAR-α (rPPARα Reporter Cells; 1,235 nM): 102% | % Live cells vs. 0.10% DMSO, rPPAR-α (rPPARα Reporter Cells; 3,704 nM): 103% | % Live cells vs. 0.10% DMSO, rPPAR-α (rPPARα Reporter Cells; 11,111 nM): 102% | % Live cells vs. 0.10% DMSO, rPPAR-α (rPPARα Reporter Cells; 33,333 nM): 100% | % Live cells vs. 0.10% DMSO, rPPAR-α (rPPARα Reporter Cells; 100,000 nM): 95% | % Live cells vs. 0.10% DMSO, rPPAR-α (rPPARα Reporter Cells; 300,000 nM): 94% | Fold-Activation (vs. 0.10% DMSO) hPPAR-γ (hPPARγ; 137 nM): 0.90 fold | Fold-Activation (vs. 0.10% DMSO) hPPAR-γ (hPPARγ; 412 nM): 0.94 fold | Fold-Activation (vs. 0.10% DMSO) hPPAR-γ (hPPARγ; 1,235 nM): 0.94 fold | Fold-Activation (vs. 0.10% DMSO) hPPAR-γ (hPPARγ; 3,704 nM): 0.88 fold | Fold-Activation (vs. 0.10% DMSO) hPPAR-γ (hPPARγ; 11,111 nM): 1.0 fold | Fold-Activation (vs. 0.10% DMSO) hPPAR-γ (hPPARγ; 33,333 nM): 0.78 fold | Fold-Activation (vs. 0.10% DMSO) hPPAR-γ (hPPARγ; 100,000 nM): 1.2 fold | Fold-Activation (vs. 0.10% DMSO) hPPAR-γ (hPPARγ; 300,000 nM): 2.8* fold | Fold-Activation (vs. 0.10% DMSO) rPPAR-α (rPPARα; 137 nM): 1.3 fold | Fold-Activation (vs. 0.10% DMSO) rPPAR-α (rPPARα; 412 nM): 1.3 fold | Fold-Activation (vs. 0.10% DMSO) rPPAR-α (rPPARα; 1,235 nM): 1.3 fold | Fold-Activation (vs. 0.10% DMSO) rPPAR-α (rPPARα; 3,704 nM): 1.3 fold | Fold-Activation (vs. 0.10% DMSO) rPPAR-α (rPPARα; 11,111 nM): 1.4 fold | Fold-Activation (vs. 0.10% DMSO) rPPAR-α (rPPARα; 33,333 nM): 1.3 fold | Fold-Activation (vs. 0.10% DMSO) rPPAR-α (rPPARα; 100,000 nM): 1.3 fold | Fold-Activation (vs. 0.10% DMSO) rPPAR-α (rPPARα; 300,000 nM): 1.5 fold | % Inhibition of agonist-stimulated receptor activity vs. 0.10% DMSO, rPPAR-δ (rPPARδ; 137 nM): 26% | % Inhibition of agonist-stimulated receptor activity vs. 0.10% DMSO, rPPAR-δ (rPPARδ; 412 nM): 4.0% | % Inhibition of agonist-stimulated receptor activity vs. 0.10% DMSO, rPPAR-δ (rPPARδ; 1,235 nM): 5.7% | % Inhibition of agonist-stimulated receptor activity vs. 0.10% DMSO, rPPAR-δ (rPPARδ; 3,704 nM): 8.1% | % Inhibition of agonist-stimulated receptor activity vs. 0.10% DMSO, rPPAR-δ (rPPARδ; 11,111 nM): 3.7% | % Inhibition of agonist-stimulated receptor activity vs. 0.10% DMSO, rPPAR-δ (rPPARδ; 33,333 nM): 7.2% | % Inhibition of agonist-stimulated receptor activity vs. 0.10% DMSO, rPPAR-δ (rPPARδ; 100,000 nM): 10% | % Inhibition of agonist-stimulated receptor activity vs. 0.10% DMSO, rPPAR-δ (rPPARδ; 300,000 nM): 36% | inhibition of rat PPARs (in words), rPPARδ (rPPARδ; at higher test concentrations): does not exhibit similar inhibitory activity
